Results reported in patent US8778975B2, “Helicobacter pylori eradicating agent having inhibitory activity on gastric acid secretion” (Link Geonomics, Inc., priority 2006, dated 2014).
≈ marks a conversion by molar mass, not a printed value. Read-outs that look alike come from different tables or passages of the source.

Key:
[1] = Stability test in acidic hydrochloric acid solution (pH 2), residual ratio by HPLC; type: physicochemical; conditions: for Residual ratio at pH 2: pH 2 HCl, 37° C.; for Stability in acid (residual ratio at pH = 2: %): Table 8 summary, time not stated
Description: A test for the stability of thioether compounds (hereinafter, referred to SH-form) and sulfoxide compounds (hereinafter, referred to SO-form) at pH 2.0 was carried out. (Method) Each of the specimens produced in Examples 1 to 3 and Reference Examples 6 to 8 (sulfinyl products of Examples 1 to 3) was maintained in a solution adjusted to pH 2 with 0.5 or 1.0 mmol/L HCl (37° C.) for a predetermined time period. Subsequently, the solution was adjusted to pH 8 with triethylamine, and then an HPLC analysis was performed to calculate the residual ratio.

[2] = tested on: Helicobacter pylori standard strain ATCC 43504; test: Antibacterial potency test (MIC), Columbia agar medium, Pharmacological Test Example 1; type: cell-based
Description: A test was conducted to see whether there is a difference in the anti-Helicobacter pylori activity depending on the number of carbon atoms of the linear alkyl group for a substituent at the 4-position of the pyridine ring.
For the bacterium Helicobacter pylori, a standard strain ATCC 43504 was used to perform in vitro tests in Columbia agar medium. Each of the specimens was dissolved in a 1% DMSO solution, and the bacteria were cultured at 37° C. and pH 7.0 for 3 days. On the 4th day, the minimum growth inhibitory concentration (MIC, μg/ml) was determined.

[3] = tested on: Helicobacter pylori bacteria (ATCC 43504); test: Antiulcer action and bacteria eradicating action in Helicobacter pylori-infected Mongolian gerbils; type: in vivo; conditions: for Number of Bacteria (average) (log CFU): gastric mucosa
Description: Mongolian gerbils were experimentally infected with Helicobacter pylori bacteria, and the antiulcer action and the Helicobacter pylori bacteria eradicating action of the compounds of the present invention were tested.
Male Mongolian gerbils (30 to 40 g), five animals in each group, were orally inoculated with Helicobacter pylori bacteria (ATCC 43504) at 1.6×10^7 CFU/0.5 ml/mouse, and bred for one week, and then drug was administered two times a day for two weeks. Thereafter, the […] were bred for three weeks, and then the rats were fasted for 18 hours and subjected to abdominal section, followed by autopsy. The severity of gastric ulcer, the number of Helicobacter pylori bacteria in the gastric mucosa, and the antibody titer were measured.

[4] = tested on: gastric acid secretion; test: Gastric acid secretion inhibiting action, pylorus ligation in rats; type: in vivo, SD rats; conditions: 30 mg/kg to the duodenum, 4 hours after pylorus ligation, average
Description: The gastric acid secretion inhibiting action of the compounds of the present invention was tested. A group of five animals of male SD rats (about 200 g) were used, and the medicaments were respectively dissolved in 0.5% CMC and were all administered to the duodenum respectively at 30 mg/kg. The rats were fasted overnight from the day before the administration of the test substance to the point of administration, and pylorus ligation was performed.

[5] = tested on: Helicobacter pylori standard strains ATCC 43504, ATCC 43629, ATCC 43570 and clinically separated strains; test: Anti-Helicobacter pylori activity (MIC), standard and clinically separated strains, Pharmacological Test Example 2; type: cell-based
Description: For the bacterium Helicobacter pylori, standard strains ATCC 43504, ATCC 43629 and ATCC 43570 were used to perform in vitro tests in Columbia agar medium. The bacteria were cultured at 37° C. and pH 7.0 for 3 days. On the 4th day, the minimum growth inhibitory concentration (MIC, μg/ml) was determined. Each of the specimens was dissolved in a 1% DMSO solution. Furthermore, amoxicillin and clarithromycin were used as control drugs of antibacterial substance. Further, the compound described in the article of Thomas C. Kuehler (J. Med.

[6] = ATCC43504, 72 h, ATCC 43504, 37° C., pH 7.0, 3 days, read-out: MIC
[7] = ATCC43504, Table 8 summary, strain not stated, read-out: Anti-HP activity (MIC: μg/mL)
[8] = Helicobacter pylori, ATCC43504, Table 8, amount of administration (mg) 30, read-out: HP eradication based on Mongolian gerbil infection model: Eradication rate (%)
[9] = Clinically separated strain PT1045482
[10] = Clinically separated strain PT1045483
[11] = Clinically separated strain PT1045484
[12] = 30 mg/kg, two times a day for two weeks
[13] = Helicobacter pylori, ATCC43504, 336 h, 30 mg/kg, two times a day for two weeks, read-out: Eradication rate (%)

CCCCCOc1ccnc(C[S+]([O-])c2nc3ccccc3[nH]2)c1C (racemic) [Reference Example 6, (±)-2-[(4-n-pentyloxy-3-methylpyridin-2-yl)-methylsulfinyl]-1H-benzimidazole]
Residual ratio at pH 2 ([1]; 0 min): 100%
Residual ratio at pH 2 ([1]; 30 min): 0%
Residual ratio at pH 2 ([1]; 2 hours): 0%
Stability in acid (residual ratio at pH = 2: %) [1]: 0%
MIC [2, 6]: 3 µg/mL (≈ 8.39 µM)
MIC [2, 7]: 3 µg/mL (≈ 8.39 µM)
responders at 30 mg/kg [3, 8]: 0%

CCCCCCOc1ccnc(C[S+]([O-])c2nc3ccccc3[nH]2)c1C (racemic) [Reference Example 7, (±)-2-[(4-n-hexyloxy-3-methylpyridin-2-yl)-methylsulfinyl]-1H-benzimidazole]
Residual ratio at pH 2 ([1]; 0 min): 100%
Residual ratio at pH 2 ([1]; 30 min): 0%
Residual ratio at pH 2 ([1]; 2 hours): 0%
Stability in acid (residual ratio at pH = 2: %) [1]: 0%
MIC [2, 6]: 3 µg/mL (≈ 8.08 µM)
MIC [2, 7]: 3 µg/mL (≈ 8.08 µM)
responders at 30 mg/kg [3, 8]: 0%

CCCCCCCOc1ccnc(C[S+]([O-])c2nc3ccccc3[nH]2)c1C (racemic) [Reference Example 8, (±)-2-[(4-n-heptyloxy-3-methylpyridin-2-yl)-methylsulfinyl]-1H-benzimidazole]
Residual ratio at pH 2 ([1]; 0 min): 100%
Residual ratio at pH 2 ([1]; 30 min): 0%
Residual ratio at pH 2 ([1]; 2 hours): 0%
Stability in acid (residual ratio at pH = 2: %) [1]: 0%
MIC [2, 6]: 3 µg/mL (≈ 7.78 µM)
MIC [2, 7]: 3 µg/mL (≈ 7.78 µM)
responders at 30 mg/kg [3, 8]: 0%

CN/C(=N/CCSCc1nc[nH]c1C)NC#N [Cimetidine]
Gastric acid secretion inhibiting action: Amount of gastric acid [4]: 54%
Gastric acid secretion inhibiting action: Amount of gastric acid secretion [4]: 74%
Gastric acid secretion inhibiting action: Total acidity [4]: 41%

Cc1c(OCC(C)C)ccnc1CSc1nc2ccccc2[nH]1 [Comparative Example 1, 2-[(4-isobutoxy-3-methylpyridin-2-yl)methylthio]-1H-benzimidazole]
MIC [5, 9]: 3 µg/mL (≈ 9.16 µM)
MIC [5, 10]: 3 µg/mL (≈ 9.16 µM)
MIC [5, 11]: 1 µg/mL (≈ 3.05 µM)
MIC ([5]; Standard strain ATCC 43504): 3 µg/mL (≈ 9.16 µM)
MIC ([5]; Standard strain ATCC 43570): 1 µg/mL (≈ 3.05 µM)
MIC ([5]; Standard strain ATCC 43629): 1 µg/mL (≈ 3.05 µM)
Antibody titer (average) ([3]; 30 mg/kg): 0.49
Number of Bacteria (average) (log CFU) ([3]; 30 mg/kg): 6.3 log CFU
Number of Ulcers discovered [3, 12]: 5/5
responders at 30 mg/kg [3, 13]: 0%

CC(C)COc1ccnc(CSc2nc3ccccc3[nH]2)c1 [Comparative Example 2, 2-[(4-isobutoxy-pyridin-2-yl)methylthio]-1H-benzimidazole]
MIC [5, 9]: 10 µg/mL (≈ 31.9 µM)
MIC [5, 10]: 10 µg/mL (≈ 31.9 µM)
MIC [5, 11]: 10 µg/mL (≈ 31.9 µM)
MIC ([5]; Standard strain ATCC 43504): 10 µg/mL (≈ 31.9 µM)
MIC ([5]; Standard strain ATCC 43570): 5 µg/mL (≈ 16 µM)
MIC ([5]; Standard strain ATCC 43629): 10 µg/mL (≈ 31.9 µM)
Antibody titer (average) ([3]; 30 mg/kg): 0.55
Number of Bacteria (average) (log CFU) ([3]; 30 mg/kg): 5.9 log CFU
Number of Ulcers discovered [3, 12]: 5/5
responders at 30 mg/kg [3, 13]: 0%

CCCCOc1ccnc(CSc2nc3ccccc3[nH]2)c1C [Example 4, 2-[(4-n-butoxy-3-methylpyridin-2-yl)-methylthio]-1H-benzimidazole]
MIC [2, 6]: 0.3 µg/mL (≈ 0.916 µM)

CCCCCCCCOc1ccnc(CSc2nc3ccccc3[nH]2)c1C [Example 5, 2-[(4-n-octyloxy-3-methylpyridin-2-yl)-methylthio]-1H-benzimidazole]
MIC [2, 6]: 0.3 µg/mL (≈ 0.782 µM)

Cc1c(OCC(F)(F)F)ccnc1C[S+]([O-])c1nc2ccccc2[nH]1 (stereo not shown) [LAZ, Lansoprazole]
Residual ratio at pH 2 ([1]; 0 min): 100%
Residual ratio at pH 2 ([1]; 30 min): 0%
Residual ratio at pH 2 ([1]; 2 hours): 0%
Stability in acid (residual ratio at pH = 2: %) [1]: 0%
MIC [2, 7]: 16 µg/mL (≈ 43.3 µM)
responders at 30 mg/kg [3, 8]: 0%

COc1ccc2[nH]c([S+]([O-])Cc3ncc(C)c(OC)c3C)nc2c1 (stereo not shown) [OMZ, Omeprazole]
Stability in acid (residual ratio at pH = 2: %) [1]: 0%
MIC [2, 7]: 128 µg/mL (≈ 371 µM)
Antibody titer (average) ([3]; 10 mg/kg): 0.52
Number of Bacteria (average) (log CFU) ([3]; 10 mg/kg): 6.0 log CFU
Number of Ulcers discovered ([3]; 10 mg/kg, two times a day for two weeks): 5/5
responders at 10 mg/kg ([3]; Helicobacter pylori, ATCC43504, 336 h, 10 mg/kg, two times a day for two weeks, read-out: Eradication rate (%)): 0%
responders at 30 mg/kg [3, 8]: 0%

COCCCOc1ccnc(C[S+]([O-])c2nc3ccccc3[nH]2)c1C (stereo not shown) [RAZ, Rabeprazole]
Stability in acid (residual ratio at pH = 2: %) [1]: 0%
MIC [2, 7]: 8 µg/mL (≈ 22.3 µM)
responders at 30 mg/kg [3, 8]: 0%

COc1ccnc(CSc2nc3ccccc3[nH]2)c1C [Reference Example 1, 2-[(4-methoxy-3-methylpyridin-2-yl)-methylthio]-1H-benzimidazole]
MIC [2, 6]: 3 µg/mL (≈ 10.5 µM)

CCOc1ccnc(CSc2nc3ccccc3[nH]2)c1C [Reference Example 2, 2-[(4-ethoxy-3-methylpyridin-2-yl)-methylthio]-1H-benzimidazole]
MIC [2, 6]: 1 µg/mL (≈ 3.34 µM)

CCCOc1ccnc(CSc2nc3ccccc3[nH]2)c1C [Reference Example 3, 2-[(4-n-propoxy-3-methylpyridin-2-yl)-methylthio]-1H-benzimidazole]
MIC [2, 6]: 1 µg/mL (≈ 3.19 µM)

CCCCCCCCCOc1ccnc(CSc2nc3ccccc3[nH]2)c1C [Reference Example 4, 2-[(4-n-nonyloxy-3-methylpyridin-2-yl)-methylthio]-1H-benzimidazole]
MIC [2, 6]: 1 µg/mL (≈ 2.52 µM)

CCCCCCCCCCOc1ccnc(CSc2nc3ccccc3[nH]2)c1C [Reference Example 5, 2-[(4-n-decyloxy-3-methylpyridin-2-yl)-methylthio]-1H-benzimidazole]
MIC [2, 6]: 3 µg/mL (≈ 7.29 µM)
